The target in data set [1] is T1, human H3 receptor (Homo sapiens, UniProt Q9Y5N1).
T1 construct: expressed in transfected cells
Kind of data set: Human H3 radioligand binding ([3H]-N-alpha-methylhistamine, SPA). The following applies: Human H3 binding, Table B, Examples 136-362; read-out: hum H3 binding Ki. Put shortly: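 SPA competition binding on membranes from CHO cells stably expressing human H3 receptor (10 μg protein/well) with ~1 nM [3H]-N-alpha-methylhistamine and compound at 0.01 nM-30 μM. Incubation 4 h at room temperature in 50 mM Tris-HCl pH 7.4, 5 mM MgCl2, 0.1% BSA; non-specific binding defined with 10 μM clobenpropit.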

In data set [2] the target is T2, rat histamine H3 receptor (Rattus norvegicus, UniProt Q9QYN8).
T2 construct: encoding the entire 445-amino-acid rat histamine H3 receptor; expressed in transfected cells; membrane preparation
T2 sequence (Q9QYN8 whole entry): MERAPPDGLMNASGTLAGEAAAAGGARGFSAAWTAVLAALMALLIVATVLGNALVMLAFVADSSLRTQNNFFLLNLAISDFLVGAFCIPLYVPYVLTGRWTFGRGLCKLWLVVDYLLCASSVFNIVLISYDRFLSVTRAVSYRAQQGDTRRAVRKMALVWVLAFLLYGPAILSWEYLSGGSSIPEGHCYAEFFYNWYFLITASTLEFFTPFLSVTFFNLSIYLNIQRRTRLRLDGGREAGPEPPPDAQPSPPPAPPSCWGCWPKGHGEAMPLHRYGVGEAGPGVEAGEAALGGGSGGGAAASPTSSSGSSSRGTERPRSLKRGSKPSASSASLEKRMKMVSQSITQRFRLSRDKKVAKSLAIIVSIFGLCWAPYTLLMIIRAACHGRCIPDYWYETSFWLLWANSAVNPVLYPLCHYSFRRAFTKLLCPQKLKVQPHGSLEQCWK
Kind of data set: Rat H3 radioligand binding ([3H]-N-alpha-methylhistamine, SPA). As to conditions: Rat H3 binding, Table B, Examples 136-362; read-out: rat H3 binding Ki. Put shortly: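 Membranes from CHO-A3 cells stably expressing full-length rat H3 receptor (10 μg protein/well) incubated 4 h at room temperature, protected from light, with ~1 nM [3H]-N-alpha-methylhistamine and compound (0.01 nM-30 μM) in 50 mM Tris HCl pH 7.4, 5 mM MgCl2, 0.1% BSA. Binding read by SPA; 10 μM clobenpropit defined non-specific binding.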

SMILES strings stand for the structures.

T1 sequence (Q9Y5N1 whole entry): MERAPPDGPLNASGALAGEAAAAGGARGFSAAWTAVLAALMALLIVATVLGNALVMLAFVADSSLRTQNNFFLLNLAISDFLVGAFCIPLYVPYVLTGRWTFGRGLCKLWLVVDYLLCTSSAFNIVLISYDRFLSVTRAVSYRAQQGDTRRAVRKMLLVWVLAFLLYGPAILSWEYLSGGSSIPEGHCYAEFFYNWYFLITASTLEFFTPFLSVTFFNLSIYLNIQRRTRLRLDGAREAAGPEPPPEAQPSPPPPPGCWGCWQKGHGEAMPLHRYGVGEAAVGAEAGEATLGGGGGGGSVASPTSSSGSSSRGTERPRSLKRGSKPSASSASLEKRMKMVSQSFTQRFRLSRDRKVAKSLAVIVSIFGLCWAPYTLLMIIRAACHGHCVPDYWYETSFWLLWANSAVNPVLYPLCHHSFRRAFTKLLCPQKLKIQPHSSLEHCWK

`O=C(Nc1ccc2c(c1)COC1(CCN(C3CCC3)CC1)O2)c1ccncn1` [Example 297] returned a melting point of 198 to 199 °C. In data set [1], the inhibitory constant (Ki) was below 200 nM. The Ki in data set [2] was below 200 nM.

`c1cc2c(cc1N1CCC(N3CCOCC3)CC1)COC1(CCN(C3CCC3)CC1)O2` [Example 298] gave a melting point of 142.4 to 144.3 °C. The inhibition constant Ki in data set [1] was below 200 nM. Besides, the inhibition constant (Ki) in data set [2] is below 200 nM.

`O=S(=O)(N1CCN(c2ccc3c(c2)COC2(CCN(C4CCC4)CC2)O3)CC1)C(F)(F)F` [Example 299] displayed a melting point of 154.6 to 156.4 °C. Moreover, in data set [1], the Ki was below 200 nM. Moreover, the Ki in data set [2] is below 200 nM.

In turn, `CC(C)NC(=O)c1ccc(-c2ccc3c(c2)COC2(CCN(C4CCC4)CC2)O3)cc1` [Example 301] showed a melting point of 221 to 222 °C. Also, the inhibition constant (Ki) in data set [1] was below 200 nM. Moreover, the Ki in data set [2] was below 200 nM.

`CC(C)NC(=O)c1ccc(-c2ccc3c(c2)CCC2(CCN(C4CCC4)CC2)O3)cc1` [Example 302] showed a melting point of 191 to 192 °C. The Ki in data set [1] was below 200 nM. The inhibitory constant (Ki) in data set [2] was below 200 nM.

`COCCN(C)C(=O)c1ccc(-c2ccc3c(c2)CCC2(CCN(C4CCC4)CC2)O3)cc1` [Example 303] showed a melting point of 225 to 227 °C. Moreover, in data set [1], the inhibition constant Ki is below 200 nM. Further, the Ki in data set [2] is below 200 nM.

`O=C(Nc1ccc2c(c1)COC1(CCN(C3CCC3)CC1)O2)c1cnccn1` [Example 304] registered a melting point of 173 to 175 °C. Further, the Ki in data set [1] was below 200 nM. Moreover, in data set [2], the inhibitory constant (Ki) is below 200 nM.

For the compound `c1ccc(CNc2ccc3c(c2)COC2(CCN(C4CCC4)CC2)O3)cc1` [Example 305], the melting point was in the range of 85 to 87 °C. The inhibitory constant (Ki) in data set [1] is below 200 nM. Besides, the Ki in data set [2] was below 200 nM.

Compound `COCCN(C)C(=O)c1ccc(-c2ccc3c(c2)COC2(CCN(C4CCC4)CC2)O3)cc1` [Example 306] yielded a melting point of 232 to 234 °C. For the same compound, the Ki in data set [1] was below 200 nM. Further, in data set [2], the Ki was below 200 nM.

For the compound `O=C(N1CCCC1)N1CCN(c2ccc3c(c2)COC2(CCN(C4CCC4)CC2)O3)CC1` [Example 307], the melting point lay within 132 to 135 °C. Further, the inhibition constant (Ki) in data set [1] was below 200 nM. The Ki in data set [2] was below 200 nM.

In turn, `Cc1nc(C)c(C(=O)Nc2ccc3c(c2)COC2(CCN(C4CCC4)CC2)O3)s1` [Example 308] had a melting point of 174 to 175 °C. Moreover, in data set [1], the Ki was below 200 nM. Moreover, the Ki in data set [2] was below 200 nM.

Compound `O=C(Nc1ccc2c(c1)COC1(CCN(C3CCC3)CC1)O2)c1ccnc(N2CCCC2)c1` [Example 309] gave a melting point of 234 to 236 °C. For the same compound, in data set [1], the inhibitory constant (Ki) was below 200 nM. Also, in data set [2], the Ki was below 200 nM.

Regarding `O=C(N1CCOCC1)N1CCN(c2ccc3c(c2)COC2(CCN(C4CCC4)CC2)O3)CC1` [Example 310], the melting point lay in the range of 174 to 176 °C. For the same compound, the Ki in data set [1] is below 200 nM. For the same compound, in data set [2], the Ki is below 200 nM.

Compound `CC(C)OCCNC(=O)c1ccc(-c2ccc3c(c2)COC2(CCN(C4CCC4)CC2)O3)cc1` [Example 311] had a melting point of 155.5 to 157.3 °C. In data set [1], the Ki is below 200 nM. In addition, the inhibition constant (Ki) in data set [2] was below 200 nM.

`CC(C)OCCNC(=O)c1ccc(-c2ccc3c(c2)CCC2(CCN(C4CCC4)CC2)O3)cc1` [Example 312]: the melting point is 135 to 137 °C. Besides, the inhibition constant (Ki) in data set [1] is below 200 nM. In addition, the Ki in data set [2] was below 200 nM.

For the compound `O=C(Nc1ccc2c(c1)COC1(CCN(C3CCC3)CC1)O2)c1ccnc(N2CCOCC2)c1` [Example 313], the melting point is 205 to 207 °C. For the same compound, the Ki in data set [1] is below 200 nM. In data set [2], the inhibitory constant (Ki) was below 200 nM.

`CN(C)c1cc(C(=O)Nc2ccc3c(c2)COC2(CCN(C4CCC4)CC2)O3)ccn1` [Example 314] showed a melting point of 213 to 215 °C. Besides, the Ki in data set [1] is below 200 nM. In addition, the Ki in data set [2] was below 200 nM.

In turn, `Cc1cc(C(=O)Nc2ccc3c(c2)COC2(CCN(C4CCC4)CC2)O3)ccn1` [Example 315] registered a melting point of 184 to 185 °C. Also, in data set [1], the Ki is below 200 nM. Further, the inhibition constant (Ki) in data set [2] is below 200 nM.

Regarding `O=C(Nc1ccc2c(c1)COC1(CCN(C3CCC3)CC1)O2)c1ccc2ncsc2c1` [Example 316], the melting point lay in the range of 232 to 234 °C. Besides, the inhibitory constant (Ki) in data set [1] was below 200 nM. For the same compound, in data set [2], the inhibition constant Ki is below 200 nM.

With `O=C(NC1CCN(c2ccc3c(c2)COC2(CCN(C4CCC4)CC2)O3)CC1)N1CCCC1` [Example 319], the melting point was in the range of 210.2 to 212.6 °C. In addition, in data set [1], the Ki is below 200 nM. The Ki in data set [2] was below 200 nM.

In the case of `CC(=O)N(Cc1cccnc1)c1ccc2c(c1)COC1(CCN(C3CCC3)CC1)O2` [Example 320], the melting point was 57 to 59 °C. Moreover, the Ki in data set [1] is below 200 nM. For the same compound, in data set [2], the Ki was below 200 nM.

Regarding `c1cncc(CNc2ccc3c(c2)COC2(CCN(C4CCC4)CC2)O3)c1` [Example 321], the melting point is 117 to 118 °C. The inhibitory constant (Ki) in data set [1] is below 200 nM. In addition, the Ki in data set [2] is below 200 nM.

As for `O=C(Cc1ccccn1)Nc1ccc2c(c1)COC1(CCN(C3CCC3)CC1)O2` [Example 322], the melting point fell in the range of 166 to 168 °C. Also, the Ki in data set [1] is below 200 nM. Also, in data set [2], the Ki was below 200 nM.

As to `CNc1cc(C(=O)Nc2ccc3c(c2)COC2(CCN(C4CCC4)CC2)O3)ccn1` [Example 323], the melting point fell in the range of 207 to 208 °C. The Ki in data set [1] was below 200 nM. In data set [2], the Ki is below 200 nM.

In the case of `CC(C)C(=O)NC1CCN(c2ccc3c(c2)COC2(CCN(C4CCC4)CC2)O3)CC1` [Example 324], the melting point is 208.4 to 210.6 °C. Further, in data set [1], the Ki was below 200 nM. Further, in data set [2], the inhibitory constant (Ki) was below 200 nM.

`c1ncc(COc2ccc3c(c2)CCC2(CCN(C4CCC4)CC2)O3)o1` [Example 325] gave a melting point of 45 to 47 °C. Besides, the inhibition constant (Ki) in data set [1] was below 200 nM. Moreover, the inhibitory constant (Ki) in data set [2] is below 200 nM.

Compound `O=C(Nc1ccc2c(c1)COC1(CCN(C3CCC3)CC1)O2)c1ccc2[nH]cnc2c1` [Example 326] returned a melting point of 235 to 237 °C. Also, in data set [1], the Ki was below 200 nM. Further, in data set [2], the inhibition constant Ki is below 200 nM.

Consider `CC(=O)NC1CCN(c2ccc3c(c2)COC2(CCN(C4CCC4)CC2)O3)CC1` [Example 328], for which the melting point was 190.8 to 192 °C. Further, the inhibition constant (Ki) in data set [1] was below 200 nM. Also, in data set [2], the Ki is below 200 nM.

`CN(C)C(=O)NC1CCN(c2ccc3c(c2)COC2(CCN(C4CCC4)CC2)O3)CC1` [Example 329] had a melting point of 193 to 195.2 °C. Further, in data set [1], the inhibition constant (Ki) was below 200 nM. Besides, the Ki in data set [2] was below 200 nM.

Consider `COCCNC(=O)c1ccc(-c2ccc3c(c2)COC2(CCN(C4CCC4)CC2)O3)cc1Cl` [Example 330], for which the melting point is 234 to 235 °C. Moreover, the Ki in data set [1] was below 200 nM. Also, in data set [2], the Ki is below 200 nM.

As to `O=C(Cc1ccncc1)Nc1ccc2c(c1)COC1(CCN(C3CCC3)CC1)O2` [Example 331], the melting point fell in the range of 170 to 172 °C. Besides, the inhibition constant (Ki) in data set [1] is below 200 nM. Also, in data set [2], the Ki was below 200 nM.

The compound `COCCNC(=O)c1ccc(-c2ccc3c(c2)CCC2(CCN(C4CCC4)CC2)O3)cc1Cl` [Example 332] registered a melting point of 231 to 232 °C. Further, in data set [1], the inhibition constant (Ki) was below 200 nM. Further, the inhibition constant (Ki) in data set [2] is below 200 nM.

Regarding `O=C(Cc1cccnc1)Nc1ccc2c(c1)COC1(CCN(C3CCC3)CC1)O2` [Example 333], the melting point was in the range of 167 to 169 °C. Further, the Ki in data set [1] was below 200 nM. In addition, the inhibitory constant (Ki) in data set [2] was below 200 nM.

As to `CS(=O)(=O)N1CCC(COc2ccc3c(c2)CCC2(CCN(C4CCC4)CC2)O3)CC1` [Example 335], the melting point fell in the range of 159 to 161 °C. In addition, the Ki in data set [1] was below 200 nM. In data set [2], the inhibitory constant (Ki) was below 200 nM.

Regarding `c1cc(CNc2ccc3c(c2)COC2(CCN(C4CCC4)CC2)O3)cs1` [Example 336], the melting point was 101 to 102 °C. Moreover, the Ki in data set [1] was below 200 nM. Also, the Ki in data set [2] is below 200 nM.

The compound `COCCNC(=O)c1ccc(-c2ccc3c(c2)CCC2(CCN(C4CCC4)C2)O3)cc1F` (stereo not drawn) [Example 337] yielded a melting point of 58 to 60 °C. Also, the Ki in data set [1] is below 200 nM. Besides, the inhibitory constant (Ki) in data set [2] was below 200 nM.

In turn, `O=C(Nc1ccc2c(c1)COC1(CCN(C3CCC3)CC1)O2)c1ccc2[nH]ncc2c1` [Example 338] gave a melting point of 249 to 250 °C. For the same compound, the Ki in data set [1] is below 200 nM. Moreover, the inhibition constant Ki in data set [2] is below 200 nM.

`CN(C)C(=O)N1CCN(c2ccc3c(c2)CCC2(CCN(C4CCC4)C2)O3)CC1` (stereo not drawn) [Example 339] displayed a melting point of 231 to 233 °C. The Ki in data set [1] was below 200 nM. Moreover, the inhibition constant (Ki) in data set [2] was below 200 nM.

On to `O=C(N[C@@H]1CCOC1)c1ccc(-c2ccc3c(c2)CCC2(CCN(C4CCC4)CC2)O3)cc1` [Example 341], for which the melting point fell in the range of 194 to 195 °C. Also, the Ki in data set [1] was below 200 nM. For the same compound, in data set [2], the Ki was below 200 nM.

The compound `CC(=O)N[C@H]1CCN(c2ccc3c(c2)COC2(CCN(C4CCC4)CC2)O3)C1` [Example 342] returned a melting point of 77.9 to 80 °C. The Ki in data set [1] was below 200 nM. In addition, the Ki in data set [2] is below 200 nM.

For the compound `CC(=O)N[C@@H]1CCN(c2ccc3c(c2)COC2(CCN(C4CCC4)CC2)O3)C1` [Example 343], the melting point fell in the range of 77.9 to 79.9 °C. Besides, the inhibitory constant (Ki) in data set [1] is below 200 nM. Moreover, in data set [2], the inhibition constant (Ki) is below 200 nM.

Usually melting point stands for the temperature of the solid-liquid transition. One may read the Ki as a dissociation constant, usually derived from enzyme kinetics or from competition with a known ligand.

(Values after US8513232B2, “Substituted spirocyclic piperidine derivatives as histamine-3 (H3) receptor ligands” (Cephalon, Inc., priority 2008, dated 2013).)
